In patent publication US12377080B2, “Allosteric EGFR inhibitors and methods of use thereof” (Dana-Farber Cancer Institute, Inc., priority 2019, dated 2025):

Tests used:
[1] = target: EGFR L858R/T790M (Homo sapiens (Human), UniProt P00533, L858R/T790M); assay: HTRF-based EGFR biochemical assay (L858R/T790M); conditions: 100 μM ATP
Procedure: (§1) EGFR biochemical activity measurements were carried out using the homogeneous time-resolved fluorescence (HTRF) assay (Cisbio). Inhibitors and DMSO normalizations were first dispensed to empty black low-volume 384-well plates (Corning) with D300 digital liquid dispenser (HP). All reactions were carried out at room temperature and solutions were added to plates with a Multidrop Combi Reagent Dispenser (ThermoFisher). The reaction mixture (10 μL final volume) contained 1 μM tyrosine kinase peptide-biotin substrate and mutant EGFR in a reaction buffer (50 mM HEPES pH 7,0, 5 mM MgCl2,1 mM MnCl2, 0.01% BSA, 2 mM TCEP, 0.1 mM NaVO4). Enzyme concentrations were adjusted to accommodate varying kinase activities (L858R 0.1 nM, L858R!T790M 0,02 nM). Enzyme reaction solution (2× concentrations, 5 μL) was added to 384-well plates containing compounds and incubated for 30 mins. Enzyme reactions were initiated with the addition of […] of ATP to a final concentration of 100 μM and reacted for 20 mins. Reactions were quenched with the addition of 10 μL of phospho-tyrosine antibody-Europium(III) cryptate (1-to-180 volume ratio) and Streptavidin-XL665 (46.7 nM) in EDTA-containing detection buffer, then incubated at room temperature for 1 hour, and read with a PHERAstar plate reader (excitation =337 nm, emission =620 nm and 665 nm).

[2] = target: EGFR L858R (Homo sapiens (Human), UniProt P00533, L858R); assay: HTRF-based EGFR biochemical assay (L858R); conditions: 100 μM ATP
Sequence of EGFR L858R (P00533 25-1210 L858R): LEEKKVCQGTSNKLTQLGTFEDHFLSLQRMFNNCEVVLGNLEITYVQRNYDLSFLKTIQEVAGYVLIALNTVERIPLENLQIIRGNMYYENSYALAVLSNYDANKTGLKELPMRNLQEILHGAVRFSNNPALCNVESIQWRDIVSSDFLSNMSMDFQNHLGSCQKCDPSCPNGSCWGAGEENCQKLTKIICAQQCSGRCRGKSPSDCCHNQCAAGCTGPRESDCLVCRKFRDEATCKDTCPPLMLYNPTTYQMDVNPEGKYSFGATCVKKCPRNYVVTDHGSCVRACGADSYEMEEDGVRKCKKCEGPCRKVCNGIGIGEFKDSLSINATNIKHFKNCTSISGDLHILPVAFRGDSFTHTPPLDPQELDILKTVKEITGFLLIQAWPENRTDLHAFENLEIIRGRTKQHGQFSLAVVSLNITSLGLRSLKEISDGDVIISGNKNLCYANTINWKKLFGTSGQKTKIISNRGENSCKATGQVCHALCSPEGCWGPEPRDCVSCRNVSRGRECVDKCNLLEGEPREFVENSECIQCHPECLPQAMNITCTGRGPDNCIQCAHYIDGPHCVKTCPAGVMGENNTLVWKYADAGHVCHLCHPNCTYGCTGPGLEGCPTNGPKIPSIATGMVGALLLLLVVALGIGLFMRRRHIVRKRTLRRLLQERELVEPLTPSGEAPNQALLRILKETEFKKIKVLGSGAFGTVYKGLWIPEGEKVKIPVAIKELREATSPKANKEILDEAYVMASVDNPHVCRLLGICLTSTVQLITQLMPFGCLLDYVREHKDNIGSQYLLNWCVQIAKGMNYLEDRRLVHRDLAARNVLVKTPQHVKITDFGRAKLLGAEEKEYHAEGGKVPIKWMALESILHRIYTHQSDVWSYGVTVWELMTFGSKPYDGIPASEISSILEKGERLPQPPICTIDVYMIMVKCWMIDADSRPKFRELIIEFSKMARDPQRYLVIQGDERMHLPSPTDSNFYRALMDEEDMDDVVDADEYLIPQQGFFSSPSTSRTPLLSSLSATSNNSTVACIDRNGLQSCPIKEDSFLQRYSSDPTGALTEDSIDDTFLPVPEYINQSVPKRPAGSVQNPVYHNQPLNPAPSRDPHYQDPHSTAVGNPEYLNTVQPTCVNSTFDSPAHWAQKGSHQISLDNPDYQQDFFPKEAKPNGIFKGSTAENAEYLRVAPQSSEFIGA
Procedure: as §1

[3] = tested on: EGFR L858R/T790M mutant Ba/F3 Cells; assay: Ba/F3 cell proliferation (Cell Titer Glo) in combination with cetuximab; assay type: cell-based, murine; conditions: 72 hours
Description: The EGFR mutant L858R, Del E746_A750, L858R/T790M, Del E746_A750/T790M, L858R/T790MIC797S, and DellT790MIC797S Ba/F3 cells have been previously described (Zhou, W., et al, Nature 462, 2009, 1070-1074). All cell lines were maintained in RPM I 1640 (Cellgro; Mediatech Inc., Herndon, CA) supplemented with 10% FBS, 100 units/mL penicillin, 100 units/mL streptomycin. The EGFR 1941 R mutation was introduced via site directed mutagenesis using the Quick Change Site-Directed Mutagenesis kit (Stratagene; La Jolla, CA) according to the manufacturer's instructions. All constructs were confirmed by DNA sequencing. The constructs were shuttled into the retroviral vector JP1540 using the Cre-recombination system (Agilent Technologies, Santa Clara, CA). Ba/F3 cells were then infected with retrovirus per standard protocols, as described previously (Zhou, et al, Nature 2009). Stable clones were obtained by selection in puromycin (2 μg/ml),
Growth and inhibition of growth was assessed by the Cell Titer Glo assay (Promega, Madison, WI) and was performed according to the manufacturer's instructions. The Cell Titer Glo assay is a luminescence-based method used to determine the number of viable cells based on quantitation of the ATP present, which is directly proportional to the amount of metabolically active cells present. Ba/F3 cells of different EGFR genotypes were exposed to compounds as a single agent or in combination with […] for 72 hours and the number of cells used per experiment was determined empirically as has been previously established (Zhou, et al., Nature 2009). All experimental points were set up in triplicates in 384-well plates and all experiments were repeated at least three times. […] The curves were fitted using a non-linear regression model with a sigmoidal dose response.

[4] = tested on: NSCLC that have developed resistance to gefitinib or erlotinib; conditions: patients with NSCLC resistant to gefitinib or erlotinib; cited from earlier work

Sequence of EGFR L858R/T790M (P00533 25-1210 T790M/L858R): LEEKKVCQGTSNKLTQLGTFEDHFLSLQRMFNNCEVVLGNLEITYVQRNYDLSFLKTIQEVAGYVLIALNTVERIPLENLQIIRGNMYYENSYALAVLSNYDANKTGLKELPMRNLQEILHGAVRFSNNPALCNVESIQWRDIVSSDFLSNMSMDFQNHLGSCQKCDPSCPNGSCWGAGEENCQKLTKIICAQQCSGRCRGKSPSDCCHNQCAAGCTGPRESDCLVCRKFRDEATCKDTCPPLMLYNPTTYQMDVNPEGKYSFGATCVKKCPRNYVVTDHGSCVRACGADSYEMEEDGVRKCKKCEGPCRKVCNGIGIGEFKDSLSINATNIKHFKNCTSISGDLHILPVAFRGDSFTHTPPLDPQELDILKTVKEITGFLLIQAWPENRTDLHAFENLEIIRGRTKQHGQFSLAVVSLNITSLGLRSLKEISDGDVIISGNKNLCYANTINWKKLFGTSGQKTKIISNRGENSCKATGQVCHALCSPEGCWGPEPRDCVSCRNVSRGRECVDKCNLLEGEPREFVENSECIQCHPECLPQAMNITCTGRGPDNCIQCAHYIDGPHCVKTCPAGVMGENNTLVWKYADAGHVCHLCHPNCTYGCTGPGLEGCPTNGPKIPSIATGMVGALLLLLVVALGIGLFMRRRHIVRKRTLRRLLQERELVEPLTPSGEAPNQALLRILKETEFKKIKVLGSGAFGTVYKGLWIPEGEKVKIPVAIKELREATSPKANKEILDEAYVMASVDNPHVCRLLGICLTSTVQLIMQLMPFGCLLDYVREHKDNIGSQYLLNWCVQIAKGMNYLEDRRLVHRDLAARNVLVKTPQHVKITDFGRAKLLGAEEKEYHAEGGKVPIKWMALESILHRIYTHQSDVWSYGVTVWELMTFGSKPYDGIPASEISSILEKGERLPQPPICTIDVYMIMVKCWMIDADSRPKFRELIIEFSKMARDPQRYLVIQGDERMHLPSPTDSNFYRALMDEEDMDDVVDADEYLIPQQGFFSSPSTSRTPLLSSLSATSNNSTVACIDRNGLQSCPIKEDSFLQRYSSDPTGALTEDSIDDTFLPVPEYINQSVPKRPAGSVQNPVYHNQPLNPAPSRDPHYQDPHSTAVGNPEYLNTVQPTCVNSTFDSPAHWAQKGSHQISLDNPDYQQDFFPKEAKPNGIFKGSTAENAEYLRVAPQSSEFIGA

CN1CCC(c2ccc(-c3ccc4c(n3)C(=O)N(C(C(=O)Nc3nccs3)c3cccc(F)c3)C4)cc2F)CC1 (stereo not shown) [Compound 20, 2-(2-(3-fluoro-4-(1-methyl-piperidin-4-yl)phenyl)-7-oxo-5,7-dihydro-6H-pyrrolo[3,4-b]pyridin-6-yl)-2-(3-fluoro-phenyl)-N-(thiazol-2-yl)-acetamide]
IC50 [1]: 1 nM
IC50 [2]: 5 nM
IC50 [3]: 20 nM

CN1CCC(c2ccc(-c3ccc4c(n3)C(=O)N(C(C(=O)Nc3ccccn3)c3cc(F)ccc3O)C4)cc2)CC1 (stereo not shown) [Compound 21, 2-(5-fluoro-2-hydroxyphenyl)-2-(2-(4-(1-methylpiperidin-4-yl)phenyl)-7-oxo-5,7-dihydro-6H-pyrrolo[3,4-b]pyridin-6-yl)-N-(pyridin-2-yl)acetamide]
IC50 [1]: 0.4 nM
IC50 [2]: 4 nM
IC50 [3]: 10 nM

CN1CCC(c2ccc(-c3cnc4c(c3)C(=O)N(C(C(=O)Nc3ccccn3)c3cc(F)ccc3O)C4)cc2)CC1 (stereo not shown) [Compound 22, 2-(5-fluoro-2-hydroxyphenyl)-2-(3-(4-(1-methylpiperidin-4-yl)phenyl)-5-oxo-5,7-dihydro-6H-pyrrolo[3,4-b]pyridin-6-yl)-N-(pyridin-2-yl)acetamide]
IC50 [1]: 1 nM
IC50 [2]: 5 nM
IC50 [3]: 30 nM

CN(C)C/C=C/C(=O)Nc1cc2c(Nc3ccc(F)c(Cl)c3)ncnc2cc1O[C@H]1CCOC1 [afatinib]
RR (response rate) [4]: less than 10%
